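Protocol summary: plate cells (96-well), add compound at 5 concentrations, incubate 48 h, interpolate endpoints linearly. Definition used: TGI = concentration required for complete inhibition of growth.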
Tests used:
Assay in all cases: inhibition of tumour cell growth, NCI panel, 48 h
786-0 renal = test system: 786-0 renal
A498 renal = test system: A498 renal
A549 NSCLC = test system: A549 NSCLC
ACHN renal = test system: ACHN renal
BT-549 breast = test system: BT-549 breast
CAKI-1 renal = test system: CAKI-1 renal
CCRF-CEM leukemia = test system: CCRF-CEM leukemia
COLO 205 colon = test system: COLO 205 colon
DU-145 prostate = test system: DU-145 prostate
EKVX NSCLC = test system: EKVX NSCLC
HCT-116 colon = test system: HCT-116 colon
HCT-15 colon = test system: HCT-15 colon
HOP-62 NSCLC = test system: HOP-62 NSCLC
HS 578T breast = test system: HS 578T breast
HT29 colon = test system: HT29 colon
IGROV1 ovarian = test system: IGROV1 ovarian
K-562 leukemia = test system: K-562 leukemia
KM12 colon = test system: KM12 colon
LOX IMVI melanoma = test system: LOX IMVI melanoma
M14 melanoma = test system: M14 melanoma
MALME-3M melanoma = test system: MALME-3M melanoma
MCF7 breast = test system: MCF7 breast
MDA-MB-231 breast = test system: MDA-MB-231 breast
MDA-MB-435 = test system: MDA-MB-435
MDA-N = test system: MDA-N
MOLT-4 leukemia = test system: MOLT-4 leukemia
NCI-H226 lung = test system: NCI-H226 lung
NCI-H23 lung = test system: NCI-H23 lung
NCI-H460 lung = test system: NCI-H460 lung
NCI-H522 lung = test system: NCI-H522 lung
NCI/ADR-RES ovarian = test system: NCI/ADR-RES ovarian
OVCAR-3 ovarian = test system: OVCAR-3 ovarian
OVCAR-4 ovarian = test system: OVCAR-4 ovarian
OVCAR-5 ovarian = test system: OVCAR-5 ovarian
OVCAR-8 ovarian = test system: OVCAR-8 ovarian
PC-3 prostate = test system: PC-3 prostate
RPMI-8226 leukemia = test system: RPMI-8226 leukemia
RXF 393 renal = test system: RXF 393 renal
SF-268 CNS = test system: SF-268 CNS
SF-295 CNS = test system: SF-295 CNS
SF-539 CNS = test system: SF-539 CNS
SK-MEL-2 melanoma = test system: SK-MEL-2 melanoma
SK-MEL-28 melanoma = test system: SK-MEL-28 melanoma
SK-MEL-5 melanoma = test system: SK-MEL-5 melanoma
SK-OV-3 ovarian = test system: SK-OV-3 ovarian
SN12C renal = test system: SN12C renal
SNB-19 CNS = test system: SNB-19 CNS
SNB-75 CNS = test system: SNB-75 CNS
SW-620 colon = test system: SW-620 colon
T-47D breast = test system: T-47D breast
TK-10 renal = test system: TK-10 renal
U251 CNS = test system: U251 CNS
UACC-257 melanoma = test system: UACC-257 melanoma
UACC-62 melanoma = test system: UACC-62 melanoma
UO-31 renal = test system: UO-31 renal
HL-60(TB) leukemia = test system: HL-60(TB) leukemia
SR leukemia = test system: SR leukemia
HCC-2998 colon = test system: HCC-2998 colon
HOP-92 NSCLC = test system: HOP-92 NSCLC

## Cc1nnc2sc(N/N=C/c3ccccc3)nn12
786-0 renal
  TGI: > 100 µM
A498 renal
  TGI: > 100 µM
A549 NSCLC
  TGI: > 100 µM
ACHN renal
  TGI: > 100 µM
BT-549 breast
  TGI: > 100 µM
CAKI-1 renal
  TGI: > 100 µM
CCRF-CEM leukemia
  TGI: > 100 µM
COLO 205 colon
  TGI: > 100 µM
DU-145 prostate
  TGI: > 100 µM
EKVX NSCLC
  TGI: > 100 µM
HCT-116 colon
  TGI: > 100 µM
HCT-15 colon
  TGI: > 100 µM
HOP-62 NSCLC
  TGI: > 100 µM
HS 578T breast
  TGI: > 100 µM
HT29 colon
  TGI: > 100 µM
IGROV1 ovarian
  TGI: > 100 µM
K-562 leukemia
  TGI: > 100 µM
KM12 colon
  TGI: > 100 µM
LOX IMVI melanoma
  TGI: > 100 µM
M14 melanoma
  TGI: > 100 µM
MALME-3M melanoma
  TGI: > 100 µM
MCF7 breast
  TGI: > 100 µM
MDA-MB-231 breast
  TGI: > 100 µM
MDA-MB-435
  TGI: > 100 µM
MDA-N
  TGI: > 100 µM
MOLT-4 leukemia
  TGI: > 100 µM
NCI-H226 lung
  TGI: > 100 µM
NCI-H23 lung
  TGI: > 100 µM
NCI-H460 lung
  TGI: > 100 µM
NCI-H522 lung
  TGI: > 100 µM
NCI/ADR-RES ovarian
  TGI: > 100 µM
OVCAR-3 ovarian
  TGI: > 100 µM
OVCAR-4 ovarian
  TGI: > 100 µM
OVCAR-5 ovarian
  TGI: > 100 µM
OVCAR-8 ovarian
  TGI: > 100 µM
PC-3 prostate
  TGI: > 100 µM
RPMI-8226 leukemia
  TGI: > 100 µM
RXF 393 renal
  TGI: > 100 µM
SF-268 CNS
  TGI: > 100 µM
SF-295 CNS
  TGI: > 100 µM
SF-539 CNS
  TGI: > 100 µM
SK-MEL-2 melanoma
  TGI: > 100 µM
SK-MEL-28 melanoma
  TGI: > 100 µM
SK-MEL-5 melanoma
  TGI: > 100 µM
SK-OV-3 ovarian
  TGI: 88.1 µM
SN12C renal
  TGI: > 100 µM
SNB-19 CNS
  TGI: > 100 µM
SNB-75 CNS
  TGI: > 100 µM
SW-620 colon
  TGI: > 100 µM
T-47D breast
  TGI: > 100 µM
TK-10 renal
  TGI: > 100 µM
U251 CNS
  TGI: > 100 µM
UACC-257 melanoma
  TGI: > 100 µM
UACC-62 melanoma
  TGI: > 100 µM
UO-31 renal
  TGI: > 100 µM

## CC(=O)OCC1OC(c2nnc(C)o2)=CC(OC(C)=O)C1OC(C)=O (stereo not drawn)
786-0 renal
  TGI: > 100 µM
A498 renal
  TGI: > 100 µM
A549 NSCLC
  TGI: > 100 µM
ACHN renal
  TGI: > 100 µM
BT-549 breast
  TGI: > 100 µM
CAKI-1 renal
  TGI: > 100 µM
CCRF-CEM leukemia
  TGI: > 100 µM
COLO 205 colon
  TGI: > 100 µM
DU-145 prostate
  TGI: > 100 µM
EKVX NSCLC
  TGI: > 100 µM
HCT-116 colon
  TGI: > 100 µM
HL-60(TB) leukemia
  TGI: > 100 µM
HOP-62 NSCLC
  TGI: > 100 µM
HS 578T breast
  TGI: > 100 µM
HT29 colon
  TGI: > 100 µM
IGROV1 ovarian
  TGI: > 100 µM
K-562 leukemia
  TGI: > 100 µM
KM12 colon
  TGI: > 100 µM
LOX IMVI melanoma
  TGI: > 100 µM
MALME-3M melanoma
  TGI: > 100 µM
MCF7 breast
  TGI: > 100 µM
MDA-MB-231 breast
  TGI: > 100 µM
MDA-MB-435
  TGI: > 100 µM
MDA-N
  TGI: > 100 µM
MOLT-4 leukemia
  TGI: > 100 µM
NCI-H226 lung
  TGI: > 100 µM
NCI-H23 lung
  TGI: > 100 µM
NCI-H460 lung
  TGI: > 100 µM
NCI-H522 lung
  TGI: > 100 µM
NCI/ADR-RES ovarian
  TGI: > 100 µM
OVCAR-3 ovarian
  TGI: > 100 µM
OVCAR-4 ovarian
  TGI: > 100 µM
OVCAR-5 ovarian
  TGI: > 100 µM
OVCAR-8 ovarian
  TGI: > 100 µM
PC-3 prostate
  TGI: > 100 µM
RPMI-8226 leukemia
  TGI: > 100 µM
RXF 393 renal
  TGI: > 100 µM
SF-268 CNS
  TGI: > 100 µM
SF-295 CNS
  TGI: > 100 µM
SF-539 CNS
  TGI: > 100 µM
SK-MEL-28 melanoma
  TGI: > 100 µM
SK-MEL-5 melanoma
  TGI: > 100 µM
SN12C renal
  TGI: > 100 µM
SNB-19 CNS
  TGI: > 100 µM
SNB-75 CNS
  TGI: > 100 µM
SR leukemia
  TGI: > 100 µM
SW-620 colon
  TGI: > 100 µM
TK-10 renal
  TGI: > 100 µM
U251 CNS
  TGI: > 100 µM
UACC-257 melanoma
  TGI: > 100 µM
UO-31 renal
  TGI: > 100 µM

## CC(C)CCC/C(CBr)=C(\Cl)CCl
786-0 renal
  TGI: 3.67 µM
A498 renal
  TGI: 35.2 µM
A549 NSCLC
  TGI: 31 µM
ACHN renal
  TGI: 23.3 µM
BT-549 breast
  TGI: 3.52 µM
CAKI-1 renal
  TGI: 9.35 µM
COLO 205 colon
  TGI: 3.54 µM
DU-145 prostate
  TGI: 17.2 µM
EKVX NSCLC
  TGI: 30.3 µM
HCC-2998 colon
  TGI: 21 µM
HCT-116 colon
  TGI: 7.03 µM
HCT-15 colon
  TGI: 11.4 µM
HOP-62 NSCLC
  TGI: 20.8 µM
HOP-92 NSCLC
  TGI: 4.54 µM
HS 578T breast
  TGI: 7.46 µM
HT29 colon
  TGI: 5.97 µM
IGROV1 ovarian
  TGI: 4.05 µM
KM12 colon
  TGI: 5.51 µM
LOX IMVI melanoma
  TGI: 0.542 µM
M14 melanoma
  TGI: 4.23 µM
MALME-3M melanoma
  TGI: 7.88 µM
MCF7 breast
  TGI: 12.9 µM
MDA-MB-231 breast
  TGI: 8.34 µM
MDA-MB-435
  TGI: 6.25 µM
MDA-N
  TGI: 3.91 µM
MOLT-4 leukemia
  TGI: 2.88 µM
NCI-H226 lung
  TGI: 25.7 µM
NCI-H23 lung
  TGI: 8.11 µM
NCI-H460 lung
  TGI: 18.5 µM
NCI-H522 lung
  TGI: 0.409 µM
NCI/ADR-RES ovarian
  TGI: 10.7 µM
OVCAR-3 ovarian
  TGI: 6.73 µM
OVCAR-4 ovarian
  TGI: 2.93 µM
OVCAR-5 ovarian
  TGI: 29.1 µM
OVCAR-8 ovarian
  TGI: 3.86 µM
PC-3 prostate
  TGI: 13.2 µM
RXF 393 renal
  TGI: 8.17 µM
SF-268 CNS
  TGI: 9.89 µM
SF-295 CNS
  TGI: 26.5 µM
SF-539 CNS
  TGI: 23.6 µM
SK-MEL-2 melanoma
  TGI: 2.97 µM
SK-MEL-28 melanoma
  TGI: 5.19 µM
SK-MEL-5 melanoma
  TGI: 6 µM
SK-OV-3 ovarian
  TGI: 22.3 µM
SN12C renal
  TGI: 8.85 µM
SNB-19 CNS
  TGI: 28.6 µM
SNB-75 CNS
  TGI: 4.71 µM
SW-620 colon
  TGI: 3.07 µM
TK-10 renal
  TGI: 3.72 µM
U251 CNS
  TGI: 13.4 µM
UACC-257 melanoma
  TGI: 4.78 µM
UO-31 renal
  TGI: 8.4 µM

## O=C(/C=C/c1ccccc1O)/C=C/c1ccccc1O
786-0 renal
  TGI: 3.22 µM
A498 renal
  TGI: 4.18 µM
A549 NSCLC
  TGI: 6.38 µM
ACHN renal
  TGI: 3.35 µM
BT-549 breast
  TGI: 3.28 µM
CAKI-1 renal
  TGI: 3.21 µM
COLO 205 colon
  TGI: 3.4 µM
DU-145 prostate
  TGI: 3.2 µM
HCT-116 colon
  TGI: 1.23 µM
HCT-15 colon
  TGI: 5.1 µM
HL-60(TB) leukemia
  TGI: 7.62 µM
HOP-62 NSCLC
  TGI: 5.76 µM
HOP-92 NSCLC
  TGI: 4.87 µM
HS 578T breast
  TGI: 12.3 µM
HT29 colon
  TGI: 4.85 µM
IGROV1 ovarian
  TGI: 3.31 µM
K-562 leukemia
  TGI: > 100 µM
KM12 colon
  TGI: 3.3 µM
M14 melanoma
  TGI: 3.55 µM
MALME-3M melanoma
  TGI: 4.27 µM
MDA-MB-231 breast
  TGI: 5.29 µM
MDA-MB-435
  TGI: 4.64 µM
MDA-N
  TGI: 3.93 µM
MOLT-4 leukemia
  TGI: > 100 µM
NCI-H23 lung
  TGI: 3.84 µM
NCI-H460 lung
  TGI: 3.08 µM
NCI/ADR-RES ovarian
  TGI: 4.88 µM
OVCAR-3 ovarian
  TGI: 1.26 µM
OVCAR-4 ovarian
  TGI: 7.7 µM
OVCAR-5 ovarian
  TGI: 3.14 µM
OVCAR-8 ovarian
  TGI: 5.08 µM
PC-3 prostate
  TGI: 3.38 µM
RPMI-8226 leukemia
  TGI: 0.76 µM
SF-268 CNS
  TGI: 0.905 µM
SF-295 CNS
  TGI: 3.89 µM
SF-539 CNS
  TGI: 3.57 µM
SK-MEL-2 melanoma
  TGI: 23.1 µM
SK-MEL-28 melanoma
  TGI: 3.67 µM
SK-MEL-5 melanoma
  TGI: 2.8 µM
SK-OV-3 ovarian
  TGI: 4.34 µM
SN12C renal
  TGI: 3.65 µM
SNB-19 CNS
  TGI: 4.86 µM
SNB-75 CNS
  TGI: 19.5 µM
SR leukemia
  TGI: > 100 µM
SW-620 colon
  TGI: 4.36 µM
TK-10 renal
  TGI: 3.27 µM
U251 CNS
  TGI: 2.89 µM
UACC-257 melanoma
  TGI: 21.8 µM
UACC-62 melanoma
  TGI: 3.31 µM
UO-31 renal
  TGI: 3.59 µM
